Test results reported in patent US9895377B2, “Solid forms of tyrosine kinase inhibitors, process for the preparation and their pharmaceutical composition thereof” (LAURUS LABS LIMITED, priority 2012, dated 2018).

Assay: delta pKa difference between tyrosine kinase inhibitor and anti-oxidative acids
Format: physicochemical
Settings: between the tyrosine kinase inhibitor and anti-oxidative acids; more than 3 = salt, less than 3 = co-crystal (FDA draft guidelines)

Row | SMILES | delta pKa difference
1 | COc1cc2ncnc(Nc3ccc(F)c(Cl)c3)c2cc1OCCCN1CCOCC1 [gefitinib, Gefitinib] | less than 3
2 | Cc1ccc(NC(=O)c2ccc(CN3CCN(C)CC3)cc2)cc1Nc1nccc(-c2cccnc2)n1 [imatinib, Imatinib] | more than 3
